Measured values reported in patent US12091426B2, “Bifunctional degraders of hematopoietic progenitor kinase and therapeutic uses thereof” (Nurix Therapeutics, Inc., priority 2021, dated 2024).

Target: T1, HPK1 (Homo sapiens, UniProt Q92918)
T1 construct: A HiBiT tag was introduced by CRISPR on the N terminus of HPK1 in Jurkat cells; host or cells: Jurkat cells (ATCC TIB-152), monoclonal line with CRISPR knock-in of HiBiT at the endogenous HPK1 locus
Assay: HPK1 Cellular HiBit Degradation Assay
Assay type: cell-based
Conditions: HiBiT HPK1 Jurkat cells, 24 hrs; for DC50: concentration at which 50% of HPK1 was remaining, read-out: DC50 Category; for Dmax: Jurkat, maximum degradation vs DMSO vehicle control, read-out: Dmax Category
Procedure: HPK1 Cellular HiBit Degradation Assay
A HiBiT tag was introduced by CRISPR on the N terminus of HPK1 in Jurkat cells (ATCC® TIB-152) to allow quantitation of HPK1 protein levels in a monoclonal human cell line. Cells were plated at 1×10^6 cells/mL, 30 uL/well (3×10^4 cells/well) in complete RPMI 1640 (10% heat inactivated FBS, 1% L-glutamine) in 384-well assay plates (Corning, cat. no. 3570). HPK1 chimeric targeting molecules (CTMs) were added in an 11 point dilution series (11-point, 3.16-fold) with a final assay concentration range of 10 uM to 0.1 nM. The parental Jurkat cell line, with no HiBiT insertion, was included in the assay as a background control. Cell treated with a DMSO vehicle control was used to determine the maximum signal defining 100% HPK1 in the cell. Cells were incubated for 24 hrs at 37° C./5% CO2. Following incubation, 30 uL of complete Nano-Glo HiBiT Lytic Detection Reagent (Promega cat. no. N3040) was added. Cells were incubated for 10 min at room temperature and luminescence was read on an EnVision plate reader (Perkin Elmer, 0.1 sec per well). Viability was assessed in the same plate using Cell Titer Fluor (Promega) and read on an EnVision plate reader to ensure results were not the effect of cytotoxicity. Percent HPK1 remaining per sample was calculated as follows:
[formula] % HPK1 remaining values were plotted as a function of compound concentration and curves were fit using the Prism (GraphPad) equation “log(inhibitor) vs response−Variable slope (four parameters)”. Dmax values were calculated by identifying the lowest % remaining and subtracting from 100. DC50 values were determined by extrapolating from the curve the concentration at which 50% of HPK1 was remaining based on the DMSO control.
HiBiT HPK1 Jurkat cell lines were used to evaluate the total protein levels of HPK1 in a robust human cellular high throughput format. The level of HPK1 remaining following treatment with HPK1 CTMs is reported as Dmax (maximum degradation) achieved at 24 hours when compared to vehicle treated controls. […] These decreases were not a result of cytotoxicity measured by a viability assessment.

T1 sequence (Q92918 whole entry): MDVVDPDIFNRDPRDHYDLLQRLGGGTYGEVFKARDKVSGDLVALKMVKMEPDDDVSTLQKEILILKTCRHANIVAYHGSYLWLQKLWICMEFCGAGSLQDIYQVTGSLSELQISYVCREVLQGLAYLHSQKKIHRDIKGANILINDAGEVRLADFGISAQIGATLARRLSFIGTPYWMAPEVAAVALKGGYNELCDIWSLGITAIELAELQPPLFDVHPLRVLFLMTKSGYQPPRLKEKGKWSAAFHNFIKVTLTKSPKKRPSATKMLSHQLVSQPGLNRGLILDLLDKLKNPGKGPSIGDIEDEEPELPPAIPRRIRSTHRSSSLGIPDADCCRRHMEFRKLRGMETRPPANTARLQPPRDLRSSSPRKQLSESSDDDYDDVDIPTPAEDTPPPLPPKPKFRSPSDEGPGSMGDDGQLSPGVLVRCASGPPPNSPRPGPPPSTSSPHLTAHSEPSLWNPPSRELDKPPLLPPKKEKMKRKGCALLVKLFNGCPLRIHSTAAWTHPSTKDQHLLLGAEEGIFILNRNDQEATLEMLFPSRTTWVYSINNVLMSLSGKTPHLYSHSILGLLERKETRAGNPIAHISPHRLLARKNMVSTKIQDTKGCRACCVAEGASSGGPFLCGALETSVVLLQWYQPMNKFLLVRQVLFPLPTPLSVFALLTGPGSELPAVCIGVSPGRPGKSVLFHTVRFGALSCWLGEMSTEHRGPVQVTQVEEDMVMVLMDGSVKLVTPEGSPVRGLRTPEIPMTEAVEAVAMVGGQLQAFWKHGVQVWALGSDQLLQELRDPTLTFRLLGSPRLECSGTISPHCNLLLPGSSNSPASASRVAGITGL

Row | DC50 [nM] | Dmax [%] | SMILES
1 | 100 to 500 | 50 to 70 | CC(C)n1cnc2cc(-c3ccc4c(c3)N([C@H]3C[C@@H](N5CCCCC5)C3)C(=O)C43CCN(C(=O)C4(C)CCN(C(=O)[C@H]5CC[C@H](N(C)c6ccc(C7CCC(=O)NC7=O)cc6)CC5)CC4)CC3)nc(NC3CC3)c21 (mixture of isomers) [Example 150, (3RS)-3-(4-{methyl[(1R,4R)-4-[4-({6-[4-(cyclopropylamino)-3-isopropylimidazo[4,5-c]pyridin-6-yl]-2-oxo-1-[(1S,3S)-3-(piperidin-1-yl)cyclobutyl]spiro[indole-3,4′-piperidin]-1′-yl}carbonyl)-4-methylpiperidine-1-carbonyl]cyclohexyl]amino}phenyl)piperidine-2,6-dione]
2 | < 100 | 70 to 85 | CC(C)n1cnc2cc(-c3ccc4c(c3)N([C@H]3C[C@@H](N5CCCCC5)C3)C(=O)C43CCN(C(=O)C4(C)CCN(C(=O)C5CCN(c6ncc(C7CCC(=O)NC7=O)cn6)CC5)CC4)CC3)nc(NC3CC3)c21 (mixture of isomers) [Example 220, (3RS)-3-(2-{4-[4-({6-[4-(cyclopropylamino)-3-(propan-2-yl)-3H-imidazo[4,5-c]pyridin-6-yl]-2-oxo-1-[(1S,3S)-3-(piperidin-1-yl)cyclobutyl]-1,2-dihydrospiro[indole-3,4′-piperidin]-1′-yl}carbonyl)-4-methylpiperidine-1-carbonyl]piperidin-1-yl}pyrimidin-5-yl)piperidine-2,6-dione]
3 | < 100 | 70 to 85 | CC(C)n1cnc2cc(-c3ccc4c(c3)N([C@H]3C[C@@H](N5CCCCC5)C3)C(=O)C43CCN(C(=O)C4(C)CCN(C(=O)[C@H]5CC[C@H](Oc6ccc(C7CCC(=O)NC7=O)cc6)CC5)CC4)CC3)nc(NC3CC3)c21 (mixture of isomers) [Example 101, (3RS)-3-(4-{[(1R,4R)-4-[4-({6-[4-(cyclopropylamino)-3-(propan-2-yl)-3H-imidazo[4,5-c]pyridin-6-yl]-2-oxo-1-[(1S,3S)-3-(piperidin-1-yl)cyclobutyl]-1,2-dihydrospiro[indole-3,4′-piperidin]-1′-yl}carbonyl)-4-methylpiperidine-1-carbonyl]cyclohexyl]oxy}phenyl)piperidine-2,6-dione]
4 | < 100 | 70 to 85 | CC(C)n1cnc2cc(-c3ccc4c(c3)N([C@H]3C[C@@H](N5CCCCC5)C3)C(=O)C43CCN(C(=O)C4(O)CCN(C(=O)C5CCN(c6ccc(C7CCC(=O)NC7=O)cc6)CC5)CC4)CC3)nc(NC3CC3)c21 (mixture of isomers) [Example 274, (3RS)-3-(4-{4-[4-({6-[4-(cyclopropylamino)-3-(propan-2-yl)-3H-imidazo[4,5-c]pyridin-6-yl]-2-oxo-1-[(1S,3S)-3-(piperidin-1-yl)cyclobutyl]-1,2-dihydrospiro[indole-3,4′-piperidin]-1′-yl}carbonyl)-4-hydroxypiperidine-1-carbonyl]piperidin-1-yl}phenyl)piperidine-2,6-dione]

More lines, now with the values behind:

Row | SMILES | DC50 [nM] | Dmax [%]
5 | CC(C)n1cnc2cc(-c3ccc4c(c3)N([C@H]3C[C@@H](N5CCCCC5)C3)C(=O)C43CCN(C(=O)C4(C)CCN(C(=O)[C@H]5CC[C@H](Nc6ccc(N7CCC(=O)NC7=O)cn6)CC5)CC4)CC3)nc(NC3CC3)c21 [Example 192, 1-(6-{[(1R,4R)-4-[4-({6-[4-(cyclopropylamino)-3-(propan-2-yl)-3H-imidazo[4,5-c]pyridin-6-yl]-2-oxo-1-[(1S,3S)-3-(piperidin-1-yl)cyclobutyl]-1,2-dihydrospiro[indole-3,4′-piperidin]-1′-yl}carbonyl)-4-methylpiperidine-1-carbonyl]cyclohexyl]amino}pyridin-3-yl)-1,3-diazinane-2,4-dione] | < 100 | 70 to 85
6 | CC(C)n1cnc2cc(-c3ccc4c(c3)N([C@H]3C[C@@H](N5CCCCC5)C3)C(=O)C43CCN(C(=O)c4ccc(C(=O)N5CCN(c6ccc(C7CCC(=O)NC7=O)cc6)CC5)cc4)CC3)nc(Nc3ccccc3F)c21 (mixture of isomers) [Example 40, (3RS)-3-[4-(4-{4-[(6-{4-[(2-fluorophenyl)amino]-3-(propan-2-yl)-3H-imidazo[4,5-c]pyridin-6-yl}-2-oxo-1-[(1S,3S)-3-(piperidin-1-yl)cyclobutyl]-1,2-dihydrospiro[indole-3,4′-piperidin]-1′-yl)carbonyl]benzoyl}piperazin-1-yl)phenyl]piperidine-2,6-dione] | 500 to 1000 | 50 to 70
7 | CC(C)n1cnc2cc(-c3ccc4c(c3)N([C@H]3C[C@@H](N5CCCCC5)C3)C(=O)C43CCN(C(=O)[C@@H]4CCN(C(=O)[C@H]5CC[C@H](Nc6cccc7c6C(=O)N(C6CCC(=O)NC6=O)C7=O)CC5)C4)CC3)nc(NC3CC3)c21 (mixture of isomers) [Example 10, 2-[(3RS)-2,6-dioxopiperidin-3-yl]-4-{[(1R,4R)-4-[(3R)-3-({6-[4-(cyclopropylamino)-3-(propan-2-yl)-3H-imidazo[4,5-c]pyridin-6-yl]-2-oxo-1-[(1S,3S)-3-(piperidin-1-yl)cyclobutyl]-1,2-dihydrospiro[indole-3,4′-piperidin]-1′-yl}carbonyl)pyrrolidine-1-carbonyl]cyclohexyl]amino}-2,3-dihydro-1H-isoindole-1,3-dione] | < 100 | 70 to 85
8 | CC(C)n1cnc2cc(-c3ccc4c(c3)N([C@H]3C[C@@H](N5CCCCC5)C3)C(=O)C43CCN(C(=O)C4CCN(C(=O)[C@H]5CC[C@H](Nc6cccc7c6C(=O)N(C6CCC(=O)NC6=O)C7=O)CC5)CC4)CC3)nc(NC3CC3)c21 (mixture of isomers) [Example 56, 2-[(3RS)-2,6-dioxopiperidin-3-yl]-4-{[(1R,4R)-4-[4-({6-[4-(cyclopropylamino)-3-(propan-2-yl)-3H-imidazo[4,5-c]pyridin-6-yl]-2-oxo-1-[(1S,3S)-3-(piperidin-1-yl)cyclobutyl]-1,2-dihydrospiro[indole-3,4′-piperidin]-1′-yl}carbonyl)piperidine-1-carbonyl]cyclohexyl]amino}-2,3-dihydro-1H-isoindole-1,3-dione] | 500 to 1000 | 50 to 70
9 | CC(C)n1cnc2cc(-c3ccc4c(c3)N([C@H]3C[C@@H](N5CCCCC5)C3)C(=O)C43CCN(C(=O)C4(C)CCN(C(=O)C5CCN(c6ccc(C7CCC(=O)NC7=O)cn6)CC5)CC4)CC3)nc(N[C@H]3C[C@H](C#N)C3)c21 (stereo partly drawn) [Example 176, (1R,3R)-3-({6-[1′-(1-{1-[5-(2,6-dioxopiperidin-3-yl)pyridin-2-yl]piperidine-4-carbonyl}-4-methylpiperidine-4-carbonyl)-2-oxo-1-[(1S,3S)-3-(piperidin-1-yl)cyclobutyl]-1,2-dihydrospiro[indole-3,4′-piperidin]-6-yl]-3-(propan-2-yl)-3H-imidazo[4,5-c]pyridin-4-yl}amino)cyclobutane-1-carbonitrile] | 100 to 500 | 70 to 85
10 | CC(C)n1cnc2cc(-c3ccc4c(c3)N([C@H]3C[C@@H](N5CCCCC5)C3)C(=O)C43CCN(C(=O)[C@H]4CCN(C(=O)C5CCN(c6ccc(C7CCC(=O)NC7=O)cn6)CC5)C[C@H]4C)CC3)nc(NC3CC3)c21 (mixture of isomers) [Example 247, (3RS)-3-(6-{4-[(3S,4S)-4-({6-[4-(cyclopropylamino)-3-(propan-2-yl)-3H-imidazo[4,5-c]pyridin-6-yl]-2-oxo-1-[(1S,3S)-3-(piperidin-1-yl)cyclobutyl]-1,2-dihydrospiro[indole-3,4′-piperidin]-1′-yl}carbonyl)-3-methylpiperidine-1-carbonyl]piperidin-1-yl}pyridin-3-yl)piperidine-2,6-dione] | < 100 | 70 to 85
11 | CC(C)n1cnc2cc(-c3ccc4c(c3)N([C@H]3C[C@@H](N5CCC[C@H](F)C5)C3)C(=O)C43CCN(C(=O)C4(C)CCN(C(=O)C5CCN(c6ccc(C7CCC(=O)NC7=O)cn6)CC5)CC4)CC3)nc(NC3CC3)c21 (mixture of isomers) [Example 203, (3RS)-3-(6-{4-[4-({6-[4-(cyclopropylamino)-3-(propan-2-yl)-3H-imidazo[4,5-c]pyridin-6-yl]-2-oxo-1-[(1S,3S)-3-[(3S)-3-fluoropiperidin-1-yl]cyclobutyl]-1,2-dihydrospiro[indole-3,4′-piperidin]-1′-yl}carbonyl)-4-methylpiperidine-1-carbonyl]piperidin-1-yl}pyridin-3-yl)piperidine-2,6-dione] | < 100 | 70 to 85
